For twelve compounds, IC50 and EC50 results are on record in patent publication US11613533B2, “Compounds useful for inhibiting RET kinase” (Eli Lilly and Company, priority 2020, dated 2023).

Assay [1] concerns the target T1, G810S mutant RET kinase (N-Terminal GST-tagged recombinant human G810S, aa-658-end) (Homo sapiens, UniProt P07949, G810S).
T1 construct: recombinant human G810S (aa-658-end); GST (N); made in house; host or cells: insect cells
T1 sequence (P07949 658-1114 G810S limits assumed): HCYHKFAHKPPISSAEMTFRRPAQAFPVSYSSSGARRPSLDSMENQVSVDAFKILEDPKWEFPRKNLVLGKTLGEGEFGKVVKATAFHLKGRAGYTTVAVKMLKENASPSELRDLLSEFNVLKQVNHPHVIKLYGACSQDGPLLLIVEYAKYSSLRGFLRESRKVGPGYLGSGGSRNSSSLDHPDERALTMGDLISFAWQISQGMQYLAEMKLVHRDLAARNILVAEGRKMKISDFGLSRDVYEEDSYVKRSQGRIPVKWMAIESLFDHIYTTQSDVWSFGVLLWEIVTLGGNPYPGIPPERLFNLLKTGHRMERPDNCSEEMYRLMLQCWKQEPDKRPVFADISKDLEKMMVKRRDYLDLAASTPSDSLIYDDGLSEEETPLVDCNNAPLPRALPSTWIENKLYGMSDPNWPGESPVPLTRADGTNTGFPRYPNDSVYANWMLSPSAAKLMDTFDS
Description: RET enzyme assay (HTRF KinEASE TK), G810S. Particulars: 1 mM ATP, 60 min incubation at 22° C. The class given is biochemical. The method, then:
Assay A: RET Enzyme Assay
Compounds of formulas I, II, or III are screened for their ability to inhibit wildtype, V804M, and G810S mutant RET kinase using CisBio's HTRF® KinEASE™TK assay technology. N-terminal GST tagged recombinant human RET cytoplasmic domain (aa 658-end) from Eurofins ([…]; Catalog No. 14-570M) or N-terminal GST tagged recombinant human V804M mutant RET cytoplasmic domain (aa 658-end) from Millipore (1.25 nM enzyme; Catalog No. 14-760) or N-Terminal GST-tagged recombinant human G810S (aa-658-end) (1.25 nM Enzyme; produced in insect cells) is incubated with 62.5 nM TK-substrate biotin (CisBio, part of Catalog No. 62TK0PEC) and 1 mM ATP along with test compound (0.4% final DMSO in the assay) in a 1× Cisbio enzymatic buffer consisting of […], 5 mM MgCl2, 0.04% BSA and 0.05% Tween20 in a volume of 10 μL. Compounds are typically prepared in a threefold serial dilution in DMSO and added to the assay to give the appropriate final concentration. After a 40-60 min (40 min for V804M, 60 min for WT and G810S) incubation at 22° C., the reaction is quenched by adding quench solution (10 μL) containing 7.8 nM Streptavidine-XL665 and 0.5×TK-ab-Cryptate in HTRF detection buffer (all from CisBio, part of Cat. No. 62TK0PEC). After a 60-80 min incubation (60 minutes for WT, 80 minutes for V804M and G810S) at 22° C., the extent of reaction is determined using a PHERastar plate reader via HTRF detection at excitation/emission 337/665 nm. Percent of inhibition is calculated with 0% inhibition referring to control conditions containing no compound (0.4% DMSO only) and 100% inhibition represented by conditions containing no enzyme. The % inhibition values are fit to a 4 parameter logistic curve, and the determined IC50 value is defined as the estimated concentration of inhibitor at the inflexion point of the fitted curve.
A general note: In TR-FRET formats the signal depends on donor and acceptor labels being close together.

Assay [2] deals with T2, KIF5B-RET mutant form G810S in HEK293 cells (Homo sapiens, UniProt P07949, G810S).
T2 construct: expressed in transfected cells; host or cells: HEK293; the other entry of the earlier key: KIF5B (P33176, Kinesin-1 heavy chain)
T2 sequence (P07949 713-1063 G810S limits assumed): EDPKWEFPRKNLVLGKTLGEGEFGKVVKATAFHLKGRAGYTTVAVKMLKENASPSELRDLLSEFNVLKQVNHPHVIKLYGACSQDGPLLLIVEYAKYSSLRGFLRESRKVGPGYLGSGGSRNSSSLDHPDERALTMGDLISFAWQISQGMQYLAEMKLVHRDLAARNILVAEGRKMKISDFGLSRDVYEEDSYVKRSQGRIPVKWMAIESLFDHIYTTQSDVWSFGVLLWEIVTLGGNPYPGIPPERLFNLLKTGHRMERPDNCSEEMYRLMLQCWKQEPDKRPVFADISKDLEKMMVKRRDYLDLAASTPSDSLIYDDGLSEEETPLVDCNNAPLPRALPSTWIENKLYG
Description: RET cell assay (In-Cell Western, phospho-RET Y1062), G810S. The class given is cell-based. Particulars: HEK293, doxycycline-induced KIF5B-RET G810S, 1 hr compound treatment; read-out: EC50, inhibition of intracellular autophosphorylation of RET at tyrosine 1062, G810S cells. The method, then: Compounds of formulas (I), (II), and (III) are screened for their ability to inhibit the intracellular autophosphorylation of RET at tyrosine 1062 as detected by In-Cell Western. HEK293 cells containing a doxycycline-inducible plasmid for inducible expression of KIF5B-RET WT and RET mutant forms V804M and G810S are seeded at 25,000 cells/well into black poly-D-lysine pre-coated 384-well plates (Corning, Catalog No. 356697). Expression of KIF5B-RET is induced with doxycycline at 1 μg/mL and cells are incubated at 37° C. overnight. Compounds are prepared in a threefold serial dilution in DMSO before further diluting 1:100 in media prior to the addition to the cells (0.1% final DMSO concentration). Compound treatment is performed for 1 hr at 37° C. followed by fixation of cells with 4% formaldehyde for 20 min at RT and cell permeabilisation with ice-cold MeOH for 10 min at RT. Cells are incubated with Intercept® blocking buffer (Li—COR, Catalogue No. 927-70010) for 1 hr at RT. Incubation with primary antibodies against human phospho-RET (Y1062) (R&D, Catalogue No. AF5009, 1/250 dilution) and human glyceraldehyde-3-phosphate dehydrogenase (clone 6C5, Merck, Catalog No. MAB374, 1/1000 dilution) are performed overnight at 4° C. Incubation with secondary antibodies IRDye® 800CW goat anti-rabbit IgG (Li—COR, Catalogue No. 926-32211, 1/1000 dilution) and IRDye® 680CW goat anti-mouse IgG (Li—COR, Catalogue No. 926-68070, 1/1000 dilution) are performed for 1 hr at RT. All antibody dilutions are done in Intercept® blocking buffer containing 0.05% Tween20. After washing cells with PBS-T (Cell Signaling technology, Catalogue No. 9809), the images are acquired on a Li—COR Odyssey LCx at 700 and 800 nm. Percent of DMSO control is calculated with 100% signal referring to control conditions containing no compound (0.4% DMSO only) and 0% signal represented by conditions containing control compound. The % of DMSO control values are fit to a 4 parameter logistic curve, and the determined EC50 value is defined as the estimated concentration of inhibitor at the inflexion point of the fitted curve.

The structures appear in SMILES notation.

With `CC(C(=O)Nc1cc(CC(C)(C)C)no1)c1ccc(-c2nn(C(C)C)c(N)c2C(N)=O)cc1` (single isomer, unassigned; isomer 1) [Example 1, 5-Amino-3-[4-(1-[[3-(2,2-dimethylpropyl)-1,2-oxazol-5-yl]carbamoyl]ethyl)phenyl]-1-isopropylpyrazole-4-carboxamide, Isomer 1], the IC50 (usually the concentration that inhibits the measured activity by half) in assay [1] was less than 0.1 µM. In assay [2], the EC50 (in general, the concentration that produces a half-maximal response) is less than 0.1 µM.

For `CCC(C)(C)c1cc(NC(=O)C(C)c2ccc(-c3nn(C(C)C)c(N)c3C(N)=O)cc2)on1` (single isomer, unassigned; isomer 1) [Example 15, 5-Amino-1-isopropyl-3-[4-(1-[[3-(2-methylbutan-2-yl)-1,2-oxazol-5-yl]carbamoyl]ethyl)phenyl]pyrazole-4-carboxamide, Isomer 1], in assay [1], the IC50 was less than 0.1 µM. Further, the EC50 in assay [2] is less than 0.1 µM.

`CC(C(=O)Nc1cc(C(C)(C)C(F)(F)F)no1)c1ccc(-c2nn(C(C)C)c(N)c2C(N)=O)cc1` (single isomer, unassigned; isomer 1) [Example 17, 5-Amino-1-isopropyl-3-[4-(1-[[3-(1,1,1-trifluoro-2-methylpropan-2-yl)-1,2-oxazol-5-yl]carbamoyl]ethyl)phenyl]pyrazole-4-carboxamide, Isomer 1]: the IC50 in assay [1] was less than 0.1 µM. Also, in assay [2], the EC50 is less than 0.1 µM.

For the compound `CC(C(=O)Nc1cc(C2(C)CC2)no1)c1ccc(-c2nn(C(C)C)c(N)c2C(N)=O)cc1` (single isomer, unassigned; isomer 1) [Example 35, 5-Amino-1-isopropyl-3-[4-(1-[[3-(1-methylcyclopropyl)-1,2-oxazol-5-yl]carbamoyl]ethyl)phenyl]pyrazole-4-carboxamide, Isomer 1], the IC50 in assay [1] was less than 0.1 µM. In addition, the EC50 in assay [2] is less than 0.1 µM.

For the compound `CC(C(=O)Nc1cc(-c2ccc(Cl)cc2Cl)no1)c1ccc(-c2nn(C(C)C)c(N)c2C(N)=O)cc1` (single isomer, unassigned; isomer 1) [Example 45, 5-Amino-3-[4-(1-[[3-(2,4-dichlorophenyl)-1,2-oxazol-5-yl]carbamoyl]ethyl)phenyl]-1-isopropylpyrazole-4-carboxamide, Isomer 1], in assay [1], the IC50 was less than 0.1 µM. Further, the EC50 in assay [2] was less than 0.1 µM.

As to `CC(C(=O)Nc1cc(C(C)(C)C(F)(F)F)on1)c1ccc(-c2nn(C(C)C)c(N)c2C(N)=O)cc1` (single isomer, unassigned; isomer 1) [Example 81, 5-Amino-1-isopropyl-3-[4-(1-[[5-(1,1,1-trifluoro-2-methylpropan-2-yl)-1,2-oxazol-3-yl]carbamoyl]ethyl)phenyl]pyrazole-4-carboxamide, Isomer 1], in assay [1], the IC50 was less than 0.1 µM. Also, the EC50 in assay [2] was less than 0.1 µM.

As to `CC(C(=O)Nc1cc(C2CC(C)(C)C2)no1)c1ccc(-c2nn(C(C)C)c(N)c2C(N)=O)cc1` (single isomer, unassigned; isomer 1) [Example 98, 5-Amino-3-[4-[2-[[3-(3,3-dimethylcyclobutyl)isoxazol-5-yl]amino]-1-methyl-2-oxo-ethyl]phenyl]-1-isopropyl-pyrazole-4-carboxamide, Isomer 1], the IC50 in assay [1] was less than 0.1 µM. The EC50 in assay [2] is less than 0.1 µM.

Take `CCC(C)(C)c1cc(NC(=O)C(C)c2ccc(-c3nn(C(C)C)c(N)c3C(N)=O)cc2)no1` (single isomer, unassigned; isomer 2) [Example 52, 5-Amino-1-isopropyl-3-[4-(1-[[5-(2-methylbutan-2-yl)-1,2-oxazol-3-yl]carbamoyl]ethyl)phenyl]pyrazole-4-carboxamide, Isomer 2]: the IC50 in assay [1] is less than 0.1 µM. Also, the EC50 in assay [2] was less than 0.1 µM.

Consider `CC(C(=O)Nc1cc(C(C)(C)C(F)(F)F)on1)c1ccc(-c2nn(C(C)C)c(N)c2C(N)=O)nc1` (single isomer, unassigned; isomer 2) [Example 64, 5-Amino-1-isopropyl-3-[5-(1-[[5-(1,1,1-trifluoro-yl)-1,2-oxazol-3-2-methylpropan-2-yl]carbamoyl]ethyl)pyridin-2-yl]pyrazole-4-carboxamide, Isomer 2], for which the concentration for half-maximal inhibition (IC50) in assay [1] is less than 0.1 µM. Further, the 50% effective concentration (EC50) in assay [2] is less than 0.1 µM.

Regarding `CCC(C)(C)c1cc(NC(=O)C(C)c2ccc(-c3nn(C(C)C)c(N)c3C(N)=O)nc2)no1` (single isomer, unassigned; isomer 2) [Example 66, 5-Amino-1-isopropyl-3-[5-(1-[[5-(2-methylbutan-2-yl)-1,2-oxazol-3-yl]carbamoyl]ethyl)pyridin-2-yl]pyrazole-4-carboxamide, Isomer 2], in assay [1], the IC50 is less than 0.1 µM. Further, the EC50 in assay [2] was less than 0.1 µM.

As to `CC(C(=O)Nc1cc(C(C)(C)CC(F)(F)F)on1)c1ccc(-c2nn(C(C)C)c(N)c2C(N)=O)nc1` (single isomer, unassigned; isomer 2) [Example 68, 5-Amino-1-isopropyl-3-(5-(1-oxo-1-((5-(4,4,4-trifluoro-2-methylbutan-2-yl)isoxazol-3-yl)amino)propan-2-yl)pyridin-2-yl)-1H-pyrazole-4-carboxamide, Isomer 2], the IC50 in assay [1] was less than 0.1 µM. Further, in assay [2], the half-maximal effective concentration (EC50) was less than 0.1 µM.

Consider `CC(C(=O)Nc1cc(C(C)(C)C(C)(F)F)on1)c1ccc(-c2nn(C(C)C)c(N)c2C(N)=O)nc1` (single isomer, unassigned; isomer 2) [Example 70, 5-Amino-3-[5-(1-[[5-(3,3-difluoro-2-methylbutan-2-yl)-1,2-oxazol-3-yl]carbamoyl]ethyl)pyridin-2-yl]-1-isopropylpyrazole-4-carboxamide, Isomer 2], for which the IC50 in assay [1] is less than 0.1 µM. The EC50 in assay [2] was less than 0.1 µM.
